Data published in patent US8535928B2, “Protease and use thereof” (Osaka University, priority 2008, dated 2013).
Starred links: 1 amine or outer side, 2 acyl side, 3 side chain; linkers in the order of their positions; H or OH if unused. Residues, ends and D or L forms follow the SMILES beside them. *: point of attachment. pNA = O=[N+]([O-])c1ccc(N*)cc1; Suc = O=C(CCC(=O)[*:2])[*:1]

Molecular target: T1, Thermococcus kodakaraensis KOD1 protease Tk-SP (mature subtilisin-like serine protease, SEQ ID NO: 1 or SEQ ID NO: 3) (Thermococcus kodakarensis, UniProt Q5JIZ5)
T1 construct: C-terminus at 562 or 563
T1 sequence (Q5JIZ5 137-562): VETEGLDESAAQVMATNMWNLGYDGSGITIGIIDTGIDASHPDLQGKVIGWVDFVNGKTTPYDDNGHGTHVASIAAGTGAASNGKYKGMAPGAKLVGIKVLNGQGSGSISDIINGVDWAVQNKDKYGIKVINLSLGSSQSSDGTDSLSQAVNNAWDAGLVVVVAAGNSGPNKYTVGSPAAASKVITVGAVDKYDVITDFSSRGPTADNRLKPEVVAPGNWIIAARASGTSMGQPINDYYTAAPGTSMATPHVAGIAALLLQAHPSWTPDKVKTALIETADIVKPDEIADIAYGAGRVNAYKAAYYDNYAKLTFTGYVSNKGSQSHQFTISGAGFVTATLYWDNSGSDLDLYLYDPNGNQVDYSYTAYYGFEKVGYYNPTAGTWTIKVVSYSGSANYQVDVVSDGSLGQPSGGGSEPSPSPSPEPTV
Test: Rate parameters of Tk-SP with Suc-AAPF-pNA (Michaelis-Menten)
Assay type: biochemical
Description: For examination of the pH dependence and the buffer dependence of the Tk-SP, enzyme reactions were performed using acetate buffers (pH 4.5, 5.0, 5.2, 5.4 and 5.6), MES buffers (pH 5.5, 6.0, 6.5 and 7.0), HEPES buffers (pH 7.0 and 7.5), Tris-HCl buffers (pH 7.0, 7.5, 8.0, 8.5 and 9.0), glycine-NaOH buffers (pH 8.5, 9.0, 9.5 and 10.0) and CAPS-NaOH buffers (pH 9.0, 9.5, 10.0, 10.5, 11.0 and 11.5) in the following procedure. 100 μl of a reaction mixture containing a 50 mM buffer and 2 mM Suc-AAPF-pNA (synthetic substrate) was incubated at 20° C. for 5 minutes. To this, 0.1 μg of the Tk-SP was added and the reaction mixture was further incubated at 20° C. for 10 minutes. The reaction was stopped by addition of 10 μl of acetic acid, and then the amount of p-nitroaniline produced from the synthetic substrate Suc-AAPF-pNA was determined by use of the absorption coefficient of 8900 M^−1 cm^−1 from the absorbance at 410 nm in an ultraviolet spectrophotometer (Beckman model DU640). The amount of the enzyme which catalyzes the production of 1 μmol of p-nitroaniline per minute was defined as “one unit.” The enzyme activity per milligram of the protein was defined as specific activity.
By use of, as a substrate, Suc-AAPF-pNA at various concentrations ranging from 0.01 to 2 mM, the specific activity of the Tk-SP was measured at 20 and 80° C. The measurement procedure was the same as that of Example 2. The obtained values were applied to the Michaelis-Menten equation for calculation of the rate parameters. For comparison, the specific activity of a known thermostable protease, Tk-subtilisin (see nonpatent literature 1) was similarly measured and then the rate parameters thereof were calculated.

C[C@H](NC(=O)CCC(=O)O)C(=O)N[C@@H](C)C(=O)N1CCC[C@H]1C(=O)N[C@@H](Cc1ccccc1)C(=O)Nc1ccc([N+](=O)[O-])cc1 [Suc-AAPF-pNA] (Suc-AAPF-pNA)
Km value relative to the Km value of Tk-subtilisin (80° C.): about 1/10 | Km (80° C., substrate 0.01 to 2 mM): 100 to 1000 µM | Km value compared with that of Tk-subtilisin (at either temperature (20 and 80° C.)): smaller than that of Tk-subtilisin
